Data on one molecule can be found in patent US20030026797A1, “Antifungal compositions” (priority 1996, published 2003).

The subject of assay [1] is conidia of Fusarium oxysporum. Kind of assay: Survival of hot-water treated conidia of Fusarium oxysporum (plating on PDA-V agar). Conditions: 2 hrs at 43.5° C., 25,000 conidia per ml, no enzymes. Type of assay: cell-based. The method, then: Viability of conidia of Fusarium oxysporum was measured at the start and at the end of the hot-water treatment. (2 hrs at 43.5° C.).
Five samples of 1 ml were mixed each with 20 ml of PDA containing 50 microgram/ml vendarcin (PDA-V) and poured into petri dishes of 14 cm diameter. Colonies were counted after 2 and 5 days at 25° C.
In the presence of natamycin and fungal cell wall degrading enzymes, 2 samples of 25 ml were taken from the bath at the beginning and the end of the treatment. These samples were centrifuged at 3,000*g for 15 min. The pellet containing the conidia was washed several times with sterile water to remove the antifungal agents, followed by centrifugation and dilution to allow for plating on PDA-V as described above. […]
Chitinase and β-1,3-glucanase respectively were added to the hot-water bath to a final activity of 36,000 and 10,000 units per liter. Units are as defined in Example 1.

The test system of another assay is Rhizoctonia. Nature of the assay: Soil treatment against Rhizoctonia infection of flower bulbs (visual inspection after 4 weeks). It counts as in vivo. Conditions: 18° C. The procedure: Bulbs were planted in pots at standard soil at a depth of 20 cm. Oat borne sclerotia of Rhizoctonia were mixed through the soil to infect the bulbs. Temperature was maintained at 18° C. during the experiment. Experiments were replicated 5 fold. Natamycin and fungal cell wall degrading enzymes were mixed as powders through the soil prior to infection with Rhizoctonia. Natamycin was tested at final concentrations of 1000, 500 and 100 mg/kg. Chitinase and β-1,3-glucanase was mixed through the soil to a final activity of 3600 and 1000 units per kg of soil. After 4 weeks bulbs were monitored for fungal infection by means of visual inspection.

Take `C[C@@H]1C/C=C/C=C/C=C/C=C/[C@H](O[C@@H]2O[C@H](C)[C@@H](O)[C@H](N)[C@@H]2O)C[C@@H]2O[C@](O)(C[C@@H](O)C[C@H]3O[C@@H]3/C=C/C(=O)O1)C[C@H](O)[C@H]2C(=O)O` [Natamycin, natamycin]: the “Surviving conidia per ml” value in assay [1] (natamycin 100 mg/L in hot-water bath) is on record as 70 per ml; in assay [1] (natamycin 200 mg/L in hot-water bath), 50 per ml; in assay [1] (natamycin 300 mg/L in hot-water bath) it was less than 1 per ml. For the same molecule, the “Percentage of bulbs showing fungal infection” value was determined as 50% with Rhizoctonia (natamycin 100 mg/kg soil), 42% in the assay with Rhizoctonia (natamycin 500 mg/kg soil) and 19% in the assay with Rhizoctonia (natamycin 1000 mg/kg soil).
